{"source": "patent US12369577B2", "about": "“Monoterpenoid/phenylpropanoid-containing compounds and methods of their making and use as baits” (KITTRICH CORPORATION, priority 2016, dated 2025)", "key": {"[1]": {"system": "house flies (Musca domestica)", "assay": "House fly feeding assay, solid food, choice assay", "format": "in vivo", "conditions": "15% w/w food; treated and untreated food; 5-days post exposure (FIG. 6)", "description": "The choice assay included one untreated food source of 1:1 evaporated milk powder and sucrose and one treated food source (with toxic biorational compounds) comprised of the same materials. Moreover, toxic insecticidal bait compounds were incorporated into the food mixture at a concentration of 15% w/w food. This increased concentration of toxic insecticidal bait was chosen to account for the concomitant lower percentage mortality expected due to the presence of both a treated and untreated food source. Mortality was recorded at 5-days post exposure.\nData is presented as average percentage mortality with the standard error of the mean (SEM). This number was compared to the total number of flies introduced to each aquaria for each replicate, and a percentage mortality was calculated. A minimum of three replicates were performed for each compound."}, "[2]": {"system": "house flies (Musca domestica)", "conditions": "in vivo", "method": "House flies (Musca domestica) were obtained from an established colony maintained by the Pesticide Toxicology Laboratory, Department of Entomology at iowa State University, Ames IA Flies were maintained according to standard laboratory protocols. House flies were supplied with water via cotton wick and solid support of sugar and dry milk (mixed 1:1), ad libitum. Prior to testing, house flies were maintained at a temperature of 24±2° C., were held at 30%±10% relative humidity, and a 12:12 hr light:dark photoperiod. Flies were randomly chosen from one of three separate Bioquip BugDorm® cages on different days to prevent a potential bias in health."}, "[3]": {"system": "house flies (Musca domestica)", "assay": "House fly feeding assay, solid food, non-choice", "format": "in vivo", "conditions": "5% weight/weight food compound plus 0.5% Z-9-tricosene (Muscalure) (FIG. 5)", "description": "Approximately 20-30 adult house flies (Musca domestica) were introduced into aquaria (2.5 gallon) with a French square filled with de-ionized water. Cotton dental wicks were used to draw water up and present it to flies at the top of the French square. Different concentrations of compounds were introduced into 1:1 mixtures of evaporated milk powder and sucrose. 2 grams of food was provided to flies with compound incorporated at various weights by weight food. If the material was solid, a mortar and pestle was used to homogenize the crushed evaporated milk powder, sucrose, and compound. If the material was a liquid, it was dissolved in acetone and aliquotted into the food slowly until the desired concentration of compound by weight food was achieved. If acetone was used as the carrier throughout the experiment, the food was carefully stirred repeatedly to ensure evaporation so that no more acetone was present in the food. The concentration used to assess mortality was 5% weight compound by weight food. Total mortality was assessed at 5 days after introducing house flies into individual mason jars with food treated with different compounds. […]\nData is presented as average percentage mortality with the standard error of the mean (SEM). This number was compared to the total number of flies introduced to each aquaria for each replicate, and a percentage mortality was calculated. […]"}, "[4]": {"system": "German cockroaches (Blattella germanica)", "assay": "German cockroach feeding assay (compound in crushed Cheerios)", "format": "in vivo", "conditions": "for percentage mortality compared to the control at two weeks / percentage mortality compared to the control: 3.75% weight compound/weight food; for percentage mortality compared to the control at two weeks: α=0.05 (FIG. 2); for percentage mortality compared to the control: 1, 2, and 3 weeks (FIG. 1); for mortality at two weeks: 15% w/w food, two weeks (FIG. 3)", "method": "Insects were kept in a constant 12:12-hour light: dark cycle and fed a diet of dry cat food (Purina® Cat Chow Complete®, rolled oats (HyVEE® Old Fashioned Oats), and Fluker's® Cricket Quencher.\nFive adult German cockroaches (Blattella germanica) were introduced to mason jars with steel mesh at the top to prevent escape. 266.6 mg of crushed Cheerios™ (approximately two cheerios) was mixed with compound at varying concentrations by weight food. If the material was solid, a mortar and pestle was used to homogenize the crushed Cheerios and compound. If the material was a liquid, it was dissolved in acetone and aliquoted into the food slowly until the desired concentration of compound by weight food was achieved. If acetone was used as the carrier throughout the experiment, the food was carefully stirred repeatedly to ensure evaporation so that no more acetone was present in the food. This was done to prevent mortality due to the presence of solvent in the treated food. Controls consisted of food that was treated with approximately 1 mL of just acetone. […] Concentrations used to assess mortality were 3.75% and 15% weight compound by weight food. Total mortality was assessed at 2 weeks after introducing cockroaches into individual mason jars with food treated with different compounds.\nData is presented as average percentage mortality with the standard error of the mean (SEM). A minimum of three replicates were performed for each compound and a ANOVA with a post-hoc Student Newman-Kuels test was performed to compare individual treatments to the control (α=0.05)."}, "[5]": {"system": "Northern house mosquitoes (Culex pipiens)", "conditions": "0.1%"}}, "note": "“Also recorded” adds a separate entry of the source."}
{"compound": "CC(C)=CCCC(C)CCOC(=O)COc1cc(C)ccc1C(C)C", "note": "(centres unmarked)", "values": [{"measurement": "toxicity and palatability in choice assay", "setting": "[1]", "value": "significant levels of toxicity"}]}
{"compound": "CCCCCOC(=O)COc1cc(C)ccc1C(C)C", "note": "[amyl ester of thymyloxyacetic acid, amyl thymyloxyacetate]", "values": [{"measurement": "toxicity and palatability in choice assay", "setting": "[1]", "value": "significant levels of toxicity"}]}
{"compound": "OB(O)O", "note": "[boric acid, reference compound]", "values": [{"measurement": "percentage mortality at 120 hours", "setting": "[2]", "value": 100, "unit": "%"}]}
{"compound": "O=C(CCCCC(=O)OC/C=C/c1ccccc1)OC/C=C/c1ccccc1", "note": "[dicinnamyl adipate]", "values": [{"measurement": "percentage mortality with added Z-9-tricosene", "setting": "[3]", "value": "higher percentage mortality; also recorded: increased toxicity"}]}
{"compound": "CC(C)=CCCC(C)CC(=O)OCC(O)COC(=O)CC(C)CCC=C(C)C", "note": "(centres unmarked) [dicitronelloyl glycerol, dicitronelloylglycerol]", "values": [{"measurement": "percentage mortality compared to the control at two weeks", "setting": "[4]", "value": "statistically significant percentage mortality compared to the control"}]}
{"compound": "CC(C)=CCCC(C)CC(=O)OCCOC(=O)CC(C)CCC=C(C)C", "note": "(centres unmarked) [ethylene dicitronellate]", "values": [{"measurement": "percentage mortality compared to the control", "setting": "[4]", "value": "considerably higher percentage mortality at all time points compared to the control group"}, {"measurement": "percentage mortality compared to the control", "setting": "[4]; listed as Ethylene dicitronellate", "value": "considerably higher percentage mortality compared to the control"}, {"measurement": "percentage mortality compared to the control at two weeks", "setting": "[4]", "value": "statistically significant percentage mortality compared to the control"}, {"measurement": "mortality at two weeks", "setting": "[4]", "value": 100, "unit": "%"}]}
{"compound": "CC(C)=CCC/C(C)=C/COC(=O)COc1cc(C)ccc1C(C)C", "note": "[geranyl thymyloxyacetate]", "values": [{"measurement": "toxicity and palatability in choice assay", "setting": "[1]", "value": "significant levels of toxicity"}]}
{"compound": "CC(C)=CCCC(C)CC(=O)OC1C(OC(=O)CC(C)CCC=C(C)C)C(OC(=O)CC(C)CCC=C(C)C)C(OC(=O)CC(C)CCC=C(C)C)C(OC(=O)CC(C)CCC=C(C)C)C1OC(=O)CC(C)CCC=C(C)C", "note": "(centres unmarked) [hexacitronellyl inositol, hexacitronelloylinositol]", "values": [{"measurement": "mortality at two weeks", "setting": "[4]", "value": 100, "unit": "%"}]}
{"compound": "Cc1ccc(C(C)C)c(OCC(=O)OC(C)C)c1", "note": "[isopropyl ester of thymyloxyacetic acid]", "values": [{"measurement": "toxicity and palatability in choice assay", "setting": "[1]", "value": "significant levels of toxicity"}]}
{"compound": "Cc1ccc(C(C)C)c(O)c1", "note": "[thymol, reference compound]", "values": [{"measurement": "percentage mortality at 120 hours", "setting": "[2]", "value": "25±10.7", "unit": "%"}]}
{"compound": "Cc1ccc(C(C)C)c(OCC(=O)O)c1", "note": "[thymyloxyacetic acid]", "values": [{"measurement": "percentage mortality compared to boric acid (FIG. 8 legend)", "setting": "[5]; 96, 120, and 144 hours", "value": "higher numerical percentage mortality than boric acid"}, {"measurement": "percentage mortality compared to the sucrose-only control", "setting": "[5]; 96, 120, and 144 hours (FIG. 8)", "value": "statistically significant percentage mortality compared to the sucrose-only control"}, {"measurement": "percentage mortality compared to boric acid", "setting": "[5]; 120 and 144 hours", "value": "much higher numerical percentage mortality compared to boric acid"}, {"measurement": "maximum percentage mortality", "setting": "[5]; 144 hours after introduction", "value": "95±3.53", "unit": "%"}, {"measurement": "performance compared with boric acid", "setting": "[5]; all time points, lack of statistical significance", "value": "performed as well as boric acid"}, {"measurement": "mortality compared with boric acid", "setting": "[2]", "value": "performed similarly"}, {"measurement": "percentage mortality at 48 hours", "setting": "[2]", "value": 26.7, "unit": "%"}, {"measurement": "percentage mortality at 72 hours", "setting": "[2]", "value": 80, "unit": "%"}, {"measurement": "percentage mortality at 96 hours", "setting": "[2]", "value": 93.3, "unit": "%"}, {"measurement": "percentage mortality at 120 hours", "setting": "[2]", "value": 100, "unit": "%"}]}
